Test results published in patent publication US20250186411A1, “Methods of Treating Disorders Associated with Overactivation of IKKB” (The United States Government as represented by the …, priority 2023, published 2025).

Experiments:
[1] = tested on: differentiated human podocytes; test: Oxygen consumption rate and extracellular acidification rate (Seahorse XFe96); type: cell-based
Experimental: Subsequently, basal OCR, maximal respiration, ATP-linked respiration, and spare respiratory capacity were determined in the presence of oligomycin, carbonyl cyanide-p-trifluoromethoxyphenylhydrazone (FCCP), and rotenone/antimycin A. All OCR measurements were normalized for the number of cells per well using CyQuant reagent (Life Technologies).

[2] = tested on: KLF15 promoter with mutation in the GRE (pEZX-FR03hKLF5p-mutant podocytes); test: GR-mutant KLF15 reporter assay; type: cell-based, human; details: as compared to DMSO
IKKβ = IKKβ (Homo sapiens, UniProt O14920)
Experimental: After the kinase reaction, an equal volume of ADP-Go™ Reagent is added to both terminate the kinase reaction and deplete the remaining ATP. Subsequently, the Detection Reagent is added to simultaneously convert ADP to ATP and measure the concentrations of newly synthesized ATP using a luciferase/luciferin reaction. The light generated is measured using a 96-well plate reader SpectraMax M3 (Molecular Devices). Luminescence can be correlated to ADP concentrations by using an ATP-to-ADP conversion curve.

[3] = tested on: differentiated human podocytes; test: RNA sequencing and enrichment analysis of BT503-treated podocytes; type: cell-based; details: vs DMSO in the setting of LPS treatment
Source text: RNA sequencing data was processed as previously described (Z. Wang, A. Ma'ayan, (2016) F1000Res 5, 1574). Briefly, sequencing reads were first aligned to the human genome (version hg38) using Spliced Transcripts Alignment to a Reference (STAR 2.4.1c) (A. Dobin et al., (2013) Bioinformatics 29, 15-21). Aligned reads were then quantified to the transcriptome (UCSC hg38 annotation) at the gene level using featureCounts (v1.4.6) (Y. Liao, G. K. Smyth, W. Shi, (2014) Bioinformatics 30, 923-930). Read counts were normalized to count per million (CPM), and differentially expressed genes were identified using BioJupies (A. Lachmann et al., (2018) Nat Commun 9, 1366). Enrichment analyses of the differentially expressed genes were performed with Enrichr (33, 66) with WikiPathways (D. N. Slenter et al., (2018) Nucleic Acids Res 46, D661-d667) and KEGG (M. Kanehisa, S. Goto, (2000) Nucleic Acids Res 28, 27-30) databases. Normalized read counts were used to create matrix visualized heat maps on Morpheus by Broad Institute (https://software.broadinstitute.org/morpheus) with hierarchical clustering, sorted by one minus Pearson's correlation and clustered by rows. […]

FVB/n mice = test: LPS-induced proteinuric murine model; type: in vivo, mouse
Experimental: In the LPS-induced proteinuric model, all 8-week-old FVB/n mice were initially treated with LPS [intraperitoneal (IP), 10 μg/g, Sigma-Aldrich] or sterile normal saline (IP) at 0- and 24-hour time points as previously described (17). […] Urine was collected and mice were euthanized 48 hours post-LPS treatment.
Urine albumin was quantified by ELISA using a kit from Bethyl Laboratory Inc. Urine creatinine levels were measured in the same samples using the Creatinine Colorimetric Assay Kit (500701; Cayman Chemical) as per manufacturer's protocol.
Briefly, mice were perfused with PBS containing 2.5 mg/ml iron oxide and 1% BSA. At the end of perfusion, kidneys were removed, decapsulated, minced into 1 mm^3 pieces, and digested in PBS containing 1 mg/ml collagenase A. Digested tissue was subsequently passed through a 100 μm cell strainer and collected by centrifugation. The pellet was resuspended in 1 ml PBS and glomeruli were collected using a magnet. The purity of glomeruli was verified under microscopy. Total RNA was isolated from kidney glomeruli of mice using the RNeasy Kit (Qiagen, Germantown, MD).
Total RNA from cells was extracted by using TRIzol (Life Technologies). First-strand cDNA was prepared from total RNA (up to 1.25 μg) using the SuperScript™ IV VILO™ Master Mix (Life Technologies), and cDNA was amplified in triplicate using PowerUp™ SYBR™ Green Master Mix on an ABI QuantStudio3 (Applied Biosystems). Primers for human and mouse genes were designed using NCBI Primer-BLAST and validated for efficiency before application (Table 1). Data were normalized to housekeeping genes (GAPDH or ACTB) and presented as a fold increase compared with RNA isolated from the control group using the ΔΔCT method.
Transmission Electron Microscopy (TEM) was done in the Central Microscopy Imaging Center at Stony Brook Medicine. Briefly, after embedding the kidney tissues in epoxy resin, ultrathin sections were stained with uranyl acetate and lead citrate, then mounted on a copper grid, and photographed under a FEI BioTwin G2 Transmission Electron Microscope with AMT XR-60 CCD digital Camera (FEI).

[4] = biological target: hERG Human Potassium Ion Channel (Homo sapiens, UniProt Q12809); test: hERG Human Potassium Ion Channel Cell Based QPatch CiPA Assay
Source text: A 500 ms pulse to −40 mV is delivered to measure the leaking current, which is subtracted from the tail current on-line. The cell is subsequently depolarized to +40 mV for 500 ms and then to −80 mV over a 100 ms ramp to elicit the hERG tail current. The parameters measured were the maximum tail current evoked on stepping to 40 mV and ramping back to −80 mV from the test pulse. All data were filtered for seal quality, seal drop, and current amplitude.

Sequence of hERG Human Potassium Ion Channel (Q12809 whole entry): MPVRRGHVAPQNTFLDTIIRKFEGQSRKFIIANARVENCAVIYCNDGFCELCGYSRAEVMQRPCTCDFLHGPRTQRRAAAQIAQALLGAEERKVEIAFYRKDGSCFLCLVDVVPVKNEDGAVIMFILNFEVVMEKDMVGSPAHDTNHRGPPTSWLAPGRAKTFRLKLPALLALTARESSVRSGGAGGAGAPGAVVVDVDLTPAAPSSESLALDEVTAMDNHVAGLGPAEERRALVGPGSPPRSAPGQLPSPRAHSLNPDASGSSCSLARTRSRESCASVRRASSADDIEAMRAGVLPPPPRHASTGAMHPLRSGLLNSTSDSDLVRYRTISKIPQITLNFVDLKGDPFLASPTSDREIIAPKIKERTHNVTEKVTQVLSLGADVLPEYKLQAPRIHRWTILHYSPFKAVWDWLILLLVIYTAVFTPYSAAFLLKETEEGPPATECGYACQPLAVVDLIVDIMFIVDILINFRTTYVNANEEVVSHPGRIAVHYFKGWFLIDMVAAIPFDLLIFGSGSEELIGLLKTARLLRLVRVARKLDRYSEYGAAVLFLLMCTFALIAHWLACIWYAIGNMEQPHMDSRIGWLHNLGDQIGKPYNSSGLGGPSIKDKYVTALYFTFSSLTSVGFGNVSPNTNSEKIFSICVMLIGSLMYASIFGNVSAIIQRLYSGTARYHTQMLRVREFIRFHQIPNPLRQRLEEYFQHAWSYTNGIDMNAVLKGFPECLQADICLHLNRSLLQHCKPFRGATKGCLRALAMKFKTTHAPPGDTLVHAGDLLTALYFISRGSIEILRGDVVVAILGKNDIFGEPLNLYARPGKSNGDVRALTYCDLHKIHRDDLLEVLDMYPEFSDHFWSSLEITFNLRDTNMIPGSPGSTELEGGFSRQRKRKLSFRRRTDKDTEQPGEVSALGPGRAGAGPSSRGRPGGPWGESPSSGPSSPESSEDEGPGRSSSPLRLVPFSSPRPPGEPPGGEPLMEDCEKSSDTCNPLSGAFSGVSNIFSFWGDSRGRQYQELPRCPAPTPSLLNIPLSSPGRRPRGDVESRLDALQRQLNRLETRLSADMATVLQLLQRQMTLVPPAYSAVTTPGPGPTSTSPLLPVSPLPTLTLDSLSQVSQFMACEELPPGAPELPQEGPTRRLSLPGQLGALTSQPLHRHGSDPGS
Sequence of IKKβ (O14920 whole entry): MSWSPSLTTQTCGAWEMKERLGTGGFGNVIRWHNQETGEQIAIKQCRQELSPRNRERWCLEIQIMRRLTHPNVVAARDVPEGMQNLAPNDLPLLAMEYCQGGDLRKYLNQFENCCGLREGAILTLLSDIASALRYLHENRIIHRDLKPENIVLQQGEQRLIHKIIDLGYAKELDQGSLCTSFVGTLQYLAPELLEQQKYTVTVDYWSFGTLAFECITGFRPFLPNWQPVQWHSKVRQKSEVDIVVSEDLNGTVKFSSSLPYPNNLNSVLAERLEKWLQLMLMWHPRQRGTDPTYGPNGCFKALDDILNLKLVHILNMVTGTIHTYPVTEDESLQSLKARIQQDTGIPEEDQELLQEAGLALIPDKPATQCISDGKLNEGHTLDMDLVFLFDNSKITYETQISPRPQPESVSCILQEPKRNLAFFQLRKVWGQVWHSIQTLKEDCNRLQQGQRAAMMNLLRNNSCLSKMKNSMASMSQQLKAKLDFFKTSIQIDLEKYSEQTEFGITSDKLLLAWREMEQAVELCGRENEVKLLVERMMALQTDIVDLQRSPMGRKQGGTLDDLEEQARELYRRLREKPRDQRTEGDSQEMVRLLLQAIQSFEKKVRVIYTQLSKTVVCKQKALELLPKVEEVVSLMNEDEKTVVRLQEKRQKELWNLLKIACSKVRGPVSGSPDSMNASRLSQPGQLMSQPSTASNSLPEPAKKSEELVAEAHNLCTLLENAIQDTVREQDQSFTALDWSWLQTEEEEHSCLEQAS

CSc1ccc(NC(=O)Nc2ccc(C)nc2)cc1 [BT503]
basal respiration, maximal respiration, ATP-linked respiration, and spare respiratory capacity ([1]; 3-10 μM): No significant differences | oxygen consumption rate (OCR) and extracellular acidification rate (ECAR) ([1]; as compared to DMSO or DEX): no significant differences | KLF15-mutant reporter activity [2]: induced KLF15 activity | inhibition of kinase activity at higher ATP concentrations (IKKβ; ATP 50 μM): mitigated | IC50 (IKKβ; read-out: IC50 (IKKβ kinase activity), IKBKB^WT): 163 nM | DEGs involved in NF-κB signaling (GSEA, heatmap) [3]: downregulation | Glomerular Klf15 and Wilms Tumor 1 (Wt1) expression (FVB/n mice; LPS conditions, vs DMSO-treated mice): restored | albuminuria (FVB/n mice; LPS proteinuric murine model, concurrent treatment, vs DMSO): attenuated albuminuria | foot process effacement (podocyte injury) (FVB/n mice; LPS treatment): significantly restored | % inhibition mean ([4]; 3 μM): 1.20% | % inhibition n1 ([4]; 3 μM): −2.01% | % inhibition n2 ([4]; 3 μM): 4.41% | % inhibition mean ([4]; 10 μM): 6.25% | % inhibition n1 ([4]; 10 μM): −0.08% | % inhibition n2 ([4]; 10 μM): 12.57% | hERG inhibition ([4]; 3-10 μM, as compared to positive control): low inhibition
